This is an account of results in the NIST ThermoML archive (doi:10.1021/acs.jced.7b01135).

Structures are written as SMILES. Numbers after ± are expanded uncertainties.

Data set [1] can be described thus: refractive index (Na D-line) (dimensionless). To be noted: 298.2 K; 101.33 kPa; Liquid; Standard Abbe refractometry.
The conditions of data set [2]: 298.2 K; 101.33 kPa; Liquid; Pycnometric method.
Data set [3] is described as follows: refractive index (Na D-line) (dimensionless); wn = mass fraction of the nth substance listed. To be noted: 101.3 kPa, Liquid, Standard Abbe refractometry.
Data set [4] can be described thus: wn = mass fraction of the nth substance listed. As to conditions: 298.2 K; 101.3 kPa; Liquid; Pycnometric method; w1 = 0.2.

A word on the refractive index: it is a measure of how strongly the sample bends light. For orientation: mass density means the mass of a sample divided by its volume.

Turning to `CCCCCCCCCCO` [decan-1-ol], the refractive index in data set [1] came out at 1.4346 ± 0.012. For the same molecule, in data set [2], the mass density turned out to be 826.86 ± 2 kg/m3.

For `O` [water], the refractive index in data set [1] turned out to be 1.3324 ± 0.012.

As for `CCCCCCCCCCO` [decan-1-ol] + O, the refractive index in data set [3] (298.2 K, w2 = 0.9975) amounted to 1.33545 ± 0.012; in data set [3] (308.2 K, w2 = 0.9938), 1.33463 ± 0.012; in data set [3] (318.2 K, w2 = 0.9901) it was 1.33317 ± 0.012; in data set [3] (328.2 K, w2 = 0.9864), 1.33224 ± 0.012.

With `O=C(O)CC(O)(CC(=O)O)C(=O)O` [citric acid] + O, in data set [3] (298.2 K, w1 = 0.2), the refractive index turned out to be 1.356 ± 0.012. Moreover, in data set [4], the mass density worked out at 1085.86 ± 2 kg/m3.
